Measurements: patent US20100216827A1 (Metabolex, Inc., priority 2008, published 2010)
Read-outs that look alike come from different tables or passages of the source.

Target: T1, human GPR120 (Homo sapiens, UniProt Q5NUL3)
T1 construct: host or cells: HEK293 cells coexpressing Gqi5
T1 sequence (Q5NUL3 1-361): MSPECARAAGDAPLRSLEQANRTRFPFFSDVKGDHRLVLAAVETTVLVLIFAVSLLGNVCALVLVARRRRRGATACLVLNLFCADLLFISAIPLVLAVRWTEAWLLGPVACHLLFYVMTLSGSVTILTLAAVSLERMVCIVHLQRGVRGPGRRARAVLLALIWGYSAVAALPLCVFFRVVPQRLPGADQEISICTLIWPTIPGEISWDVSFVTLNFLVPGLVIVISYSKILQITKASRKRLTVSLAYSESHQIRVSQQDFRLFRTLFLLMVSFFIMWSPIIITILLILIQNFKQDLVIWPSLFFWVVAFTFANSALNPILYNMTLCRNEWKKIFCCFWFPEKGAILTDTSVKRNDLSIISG
Assay: Intracellular Ca2+ (FLIPR Calcium 4, Flexstation) assay in human GPR120 stable HEK293 cell line coexpressing Gqi5
Assay type: cell-based
Conditions: for % Activity at 5 μM: 5 μM compound compared to the maximal activity of GW9508 at 6.7 μM (100%); for EC50: human GPR120 stably expressing cells, 8 concentrations 0.00001 to 20 μM
Procedure: Human GPR120 stable cell line was purchased from Multispan Inc (26219 Eden Landing Road, Hayward, Calif. 94545). This GPR120 cell line was generated in HEK293 cells coexpressing Gqi5. In this cell line, the Flag epitope tag (DYKDDDDK) was fused to the amino terminus of human GPR120 protein.
The concentration of intracellular Ca^2+ was measured as described below. Human GPR120 cells were plated in 96 well plates (Poly-D-Lysine coated black/clear Plate, Greiner Bio-One) at 70,000 cells per well and cultured overnight in conditions of 37° C. and 5% CO2. A Ca^2+ assay dye stock solution was prepared by adding 10 mL of assay buffer (HBSS/20 mM HEPES, pH 7.4) to FLIPR Calcium 4 Assay Bulk Kit (Molecular Devices). The 10 mL of Ca^2+ assay dye solution was prepared by further diluting 0.5 mL of Ca^2+ assay dye stock solution with 10 mL of assay buffer. The medium of the cells was removed and immediately 100 μl of the Ca^2+ assay dye solution was dispensed into each well followed by incubation at 37° C. and 5% CO2 for 50 minutes to incorporate the Ca^2+ dye into the cells. The cell plate was then placed in the Flexstation (Molecular Devices) for 20 minutes at 37° C. Compounds were dissolved in 100% DMSO and diluted to desired concentrations with assay buffer and placed in Flexstation simultaneously with the cell plate for 20 minute incubation at 37° C. prior to reading. Fluorescence intensity was measured immediately following compound addition (25 μl/well) on the Flexstation at an excitation wavelength of 485 nm and an emission wavelength of 525 with 515 nm auto cutoff. The resulting increase in fluorescence intensities corresponds to increases in intracellular Ca^2+ levels.
Compounds were dissolved in 100% DMSO to a concentration of 20 mM to provide stock solutions. To determine activity against human GPR120, compounds were added with human GPR120 stably expressing cells (described above), at 8 desired concentrations ranging from 0.00001 to 20 μM, in 96 well plates and fluorescence intensities were measured for 90 seconds with 2-second intervals. An EC50 value (concentration of the GPR120 agonist where 50% of the agonist's maximal activity is observed) was calculated using the changes (Max-Min) of fluorescent intensity.
To determine percent activity for a tested compound, the fluorescence intensity value obtained at a particular concentration were compared to the maximal fluorescence intensity value obtained for reference compound GW9508 (4-[[(3-phenoxyphenyl)methyl]amino]benzene propanoic acid; British Journal of Pharmacology 2006 148, 619-628) that acts as a full agonist of the GPR120 receptor. The maximal activity of GW9508 is designated as 100% activity. Typically, the GW9508 activity reached a maximum at a concentration of approximately 6.7 μM. Activities of compounds that were tested according to this method are shown in Table 1 below and are expressed as % activity at 5 μM compound compared to the maximal activity of GW9508 at 6.7 μM.

[1] = read-out: EC50 between >1 μM and ≦10 μM

Structure (SMILES): Cc1cc(COc2c(F)cc(CC(C)C(=O)O)cc2F)n(-c2cccc(Cl)c2)n1 (stereo not drawn) [Example 89, 3-(4-((1-(3-chlorophenyl)-3-methyl-1H-pyrazol-5-yl)methoxy)-3,5-difluorophenyl)-2-methylpropanoic acid]
- % Activity at 5 μM: 107%
- EC50 (read-out: EC50 ≦ 1 μM): ≤ 1000 nM

Structure (SMILES): Cc1noc(-c2ccccc2)c1COc1c(F)cc(CCC(=O)O)cc1F [Example 15, 3-(3,5-difluoro-4-((3-methyl-5-phenylisoxazol-4-yl)methoxy)phenyl)propanoic acid]
- % Activity at 5 μM: 72%
- EC50 (read-out: EC50 ≦ 1 μM): ≤ 1000 nM

Structure (SMILES): O=C(O)C1CC1c1cc(F)c(OCc2snnc2-c2ccccc2)c(F)c1 (stereo not drawn) [Example 63, 2-(3,5-difluoro-4-((4-phenyl-1,2,3-thiadiazol-5-yl)methoxy)phenyl)cyclopropane carboxylic acid]
- % Activity at 5 μM: 76%
- EC50 (read-out: EC50 ≦ 1 μM): ≤ 1000 nM

Structure (SMILES): Cc1cc(COc2c(F)cc(CC(C)C(=O)O)cc2F)n(-c2ccccn2)n1 (stereo not drawn) [Example 124, 3-(3,5-difluoro-4-((3-methyl-1-(pyridin-2-yl)-1H-pyrazol-5-yl)methoxy)phenyl)-2-methylpropanoic acid]
- % Activity at 5 μM: 33%
- EC50 (read-out: EC50 > 10 μM): > 10000 nM

Structure (SMILES): Cc1cc(COc2c(Cl)cc(CC(C)C(=O)O)cc2Cl)n(-c2ccc(Cl)cc2)n1 (stereo not drawn) [Example 113, 3-(3,5-Dichloro-4-((1-(4-chlorophenyl)-3-methyl-1H-pyrazol-5-yl)methoxy)phenyl)-2-methylpropanoic acid]
- % Activity at 5 μM: 92%
- EC50 (read-out: EC50 ≦ 1 μM): ≤ 1000 nM

Structure (SMILES): CO/N=C(/CCC(=O)O)c1ccc(OCc2snnc2-c2ccc(Cl)cc2)cc1 [Example 68, (Z)-4-(4-((4-(4-chlorophenyl)-1,2,3-thiadiazol-5-yl)methoxy)phenyl)-4-(methoxyimino)butanoic acid]
- % Activity at 5 μM: 54%
- EC50 [1]: 1000 to 10000 nM

Structure (SMILES): CCc1ccc(-n2nc(C)cc2COc2ccc3c(c2)CCC3CC(=O)O)cc1 (stereo not drawn) [Example 121, 2-(5-((1-(4-ethylphenyl)-3-methyl-1H-pyrazol-5-yl)methoxy)-2,3-dihydro-1H-inden-1-yl)acetic acid]
- % Activity at 5 μM: 94%
- EC50 (read-out: EC50 ≦ 1 μM): ≤ 1000 nM

Structure (SMILES): Cc1cc(COc2c(F)cc(CCC(=O)O)cc2F)n(-c2ccc(Cl)cc2)n1 [Example 50, 3-(4-((1-(4-chlorophenyl)-3-methyl-1H-pyrazol-5-yl)methoxy)-3,5-difluorophenyl)propanoic acid]
- % Activity at 5 μM: 85%
- EC50 (read-out: EC50 ≦ 1 μM): ≤ 1000 nM

Structure (SMILES): CCc1ccc(-n2nc(C(F)(F)F)cc2COc2c(F)cc(CC(C)C(=O)O)cc2F)cc1 (stereo not drawn) [Example 96, 3-(4-((1-(4-ethylphenyl)-3-(trifluoromethyl)-1H-pyrazol-5-yl)methoxy)-3,5-difluorophenyl)-2-methylpropanoic acid]
- % Activity at 5 μM: 97%
- EC50 (read-out: EC50 ≦ 1 μM): ≤ 1000 nM

Structure (SMILES): Cc1onc(-c2ccccc2)c1COc1c(F)cc(CC(C)C(=O)O)cc1F (stereo not drawn) [Example 37, 3-(3,5-difluoro-4-((5-methyl-3-phenylisoxazol-4-yl)methoxy)phenyl)-2-methylpropanoic acid]
- % Activity at 5 μM: 94%
- EC50 (read-out: EC50 ≦ 1 μM): ≤ 1000 nM

Structure (SMILES): Cc1cc(COc2c(F)cc(CC(C)C(=O)O)cc2F)n(-c2ccc(Cl)c(C)c2)n1 (stereo not drawn) [Example 94, 3-(4-((1-(4-chloro-3-methylphenyl)-3-methyl-1H-pyrazol-5-yl)methoxy)-3,5-difluorophenyl)-2-methylpropanoic acid]
- % Activity at 5 μM: 108%
- EC50 (read-out: EC50 ≦ 1 μM): ≤ 1000 nM

Structure (SMILES): CC(Cc1cc(F)c(OCc2ccnn2-c2ccccc2)c(F)c1)C(=O)O (stereo not drawn) [Example 91, 3-(3,5-difluoro-4-((1-phenyl-1H-pyrazol-5-yl)methoxy)phenyl)-2-methylpropanoic acid]
- % Activity at 5 μM: 64%
- EC50 (read-out: EC50 ≦ 1 μM): ≤ 1000 nM

Structure (SMILES): Cc1cc(COc2c(F)cc(C3CC3C(=O)O)cc2F)n(-c2ccccc2)n1 (stereo not drawn) [Example 64, 2-(3,5-difluoro-4-((3-methyl-1-phenyl-1H-pyrazol-5-yl)methoxy)phenyl)cyclopropane carboxylic acid]
- % Activity at 5 μM: 71%
- EC50 (read-out: EC50 ≦ 1 μM): ≤ 1000 nM

Structure (SMILES): O=C(O)CCc1cc(F)c(OCc2cncn2-c2ccccc2)c(F)c1 [Example 3, 3-(3,5-difluoro-4-((1-phenyl-1H-imidazol-5-yl)methoxy)phenyl)propanoic acid]
- % Activity at 5 μM: 70%
- EC50 [1]: 1000 to 10000 nM

Structure (SMILES): CCc1cc(COc2c(F)cc(CC(C)C(=O)O)cc2F)n(-c2ccc(Cl)cc2)n1 (stereo not drawn) [Example 101, 3-(4-((1-(4-chlorophenyl)-3-ethyl-1H-pyrazol-5-yl)methoxy)-3,5-difluorophenyl)-2-methylpropanoic acid]
- % Activity at 5 μM: 113%
- EC50 (read-out: EC50 ≦ 1 μM): ≤ 1000 nM

Structure (SMILES): COc1cc(CCC(=O)O)ccc1OCc1cc(C)nn1-c1ccc(Cl)cc1 [Example 133, 3-(4-((1-(4-chlorophenyl)-3-methyl-1H-pyrazol-5-yl)methoxy)-3-methoxyphenyl)propanoic acid]
- % Activity at 5 μM: 107%
- EC50 [1]: 1000 to 10000 nM

Structure (SMILES): C[C@@H](Oc1cc(F)c(OCc2snnc2-c2ccc(Cl)cc2)c(F)c1)C(=O)O [Example 66, (R)-2-(4-((4-(4-chlorophenyl)-1,2,3-thiadiazol-5-yl)methoxy)-3,5-difluorophenoxy)propanoic acid]
- % Activity at 5 μM: 15%
- EC50 (read-out: EC50 > 10 μM): > 10000 nM

Structure (SMILES): Cc1cc(COc2c(F)cc(CC(C)C(=O)O)cc2F)n(-c2cccc(C(C)C)c2)n1 (stereo not drawn) [Example 85, 3-(3,5-difluoro-4-((1-(3-isopropylphenyl)-3-methyl-1H-pyrazol-5-yl)methoxy)phenyl)-2-methylpropanoic acid]
- % Activity at 5 μM: 95%
- EC50 (read-out: EC50 ≦ 1 μM): ≤ 1000 nM

Structure (SMILES): Cc1cc(COc2c(F)cc(CCC(=O)O)cc2F)n(-c2ccc(F)c(F)c2)n1 [Example 53, 3-(4-((1-(3,4-difluorophenyl)-3-methyl-1H-pyrazol-5-yl)methoxy)-3,5-difluorophenyl)propanoic acid]
- % Activity at 5 μM: 84%
- EC50 (read-out: EC50 ≦ 1 μM): ≤ 1000 nM

Structure (SMILES): Cc1cc(COc2cc3c(cc2F)C(CC(=O)O)CC3)n(-c2ccc(Cl)cc2)n1 (stereo not drawn) [Example 106, 2-(5-((1-(4-Chlorophenyl)-3-methyl-1H-pyrazol-5-yl)methoxy)-6-fluoro-2,3-dihydro-1H-inden-1-yl)acetic acid]
- % Activity at 5 μM: 88%
- EC50 (read-out: EC50 ≦ 1 μM): ≤ 1000 nM

Structure (SMILES): Cc1ccc(-n2nc(C)cc2COc2c(F)cc(CC(C)C(=O)O)cc2F)cc1 (stereo not drawn) [Example 84, 3-(3,5-difluoro-4-((3-methyl-1-p-tolyl-1H-pyrazol-5-yl)methoxy)phenyl)-2-methylpropanoic acid]
- % Activity at 5 μM: 106%
- EC50 (read-out: EC50 ≦ 1 μM): ≤ 1000 nM

Structure (SMILES): C/C(=C\C(=O)O)Cc1ccc(OCc2snnc2-c2ccc(Cl)cc2)cc1 [Example 69, (E)-4-(4-((4-(4-chlorophenyl)-1,2,3-thiadiazol-5-yl)methoxy)phenyl)-3-methylbut-2-enoic acid]
- % Activity at 5 μM: 87%
- EC50 [1]: 1000 to 10000 nM

Structure (SMILES): Cc1onc(-c2ccc(F)cc2)c1COc1c(F)cc(CCC(=O)O)cc1F [Example 18, 3-(3,5-difluoro-4-((3-(4-fluorophenyl)-5-methylisoxazol-4-yl)methoxy)phenyl)propanoic acid]
- % Activity at 5 μM: 77%
- EC50 (read-out: EC50 ≦ 1 μM): ≤ 1000 nM

Structure (SMILES): Cc1cc(COc2ccc(CC(C)C(=O)O)cc2)n(-c2ccc(Cl)cc2)n1 (stereo not drawn) [Example 86, 3-(4-((1-(4-chlorophenyl)-3-methyl-1H-pyrazol-5-yl)methoxy)phenyl)-2-methylpropanoic acid]
- % Activity at 5 μM: 98%
- EC50 (read-out: EC50 ≦ 1 μM): ≤ 1000 nM
